Data taken from US20230233569A1 (Revolution Medicines, Inc., priority 2020, published 2023).

Experiments:
Test in all cases: Ras-Raf disruption / FRET / MOA assay (BRAF RBD)
Type in all cases: biochemical
[1] = molecular target: KRAS G12V (Homo sapiens, UniProt P01116+P62937, G12V); conditions: Ras-Raf disruption, with Cyclophilin A; read-out: KRAS G12V FRET data IC50
Procedure, shortened: (§1)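 Compound-induced Ras–Cyclophilin A ternary complex disrupting BRAF RBD binding, read as IC50 from reduced TR-FRET ratio relative to DMSO. Final: Ras-GMPPNP 12.5 nM, BRAF RBD 50 nM, Cyclophilin A 25 μM, top compound 30 μM (3-fold, 10 points); 3 h at 25 °C, then 1.5 h with detection antibodies.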

[2] = molecular target: KRAS G13D (Homo sapiens, UniProt P01116+P62937, G13D); conditions: Ras-Raf disruption, with Cyclophilin A; read-out: KRAS G13D FRET data IC50
Procedure, shortened: as §1

[3] = molecular target: KRAS G13C (Homo sapiens, UniProt P01116+P62937, G13C); conditions: Ras-Raf disruption, with Cyclophilin A; read-out: KRAS G13C FRET data IC50
Procedure, shortened: as §1

[4] = molecular target: KRAS WT (Homo sapiens, UniProt P01116+P62937); conditions: Ras-Raf disruption, with Cyclophilin A; read-out: KRAS WT FRET data IC50
Procedure, shortened: as §1

[5] = molecular target: KRAS G12S (Homo sapiens, UniProt P01116+P62937, G12S); conditions: Ras-Raf disruption, with Cyclophilin A; read-out: KRAS G12S FRET data IC50
Procedure, shortened: as §1

[6] = molecular target: NRAS G12C (Homo sapiens, UniProt P01111+P62937, G12C); conditions: NRAS G12C; read-out: NRAS G12C FRET data IC50
Procedure, shortened: as §1

[7] = molecular target: KRAS G12D (Homo sapiens, UniProt P01116+P62937, G12D); conditions: Ras-Raf disruption, with Cyclophilin A; read-out: KRAS G12D FRET data IC50
Procedure, shortened: as §1

[8] = molecular target: NRAS Q61K (Homo sapiens, UniProt P01111+P62937, Q61K); conditions: NRAS Q61K; read-out: NRAS Q61K FRET data IC50
Procedure, shortened: as §1

[9] = molecular target: NRAS WT (Homo sapiens, UniProt P01111+P62937); conditions: NRAS WT; read-out: NRAS WT FRET data IC50
Procedure, shortened: as §1

[10] = molecular target: KRAS Q61H (Homo sapiens, UniProt P01116+P62937, Q61H); conditions: KRAS Q61H; read-out: KRAS Q61H FRET data IC50
Procedure, shortened: as §1

[11] = molecular target: NRAS Q61R (Homo sapiens, UniProt P01111+P62937, Q61R); conditions: NRAS Q61R; read-out: NRAS Q61R FRET data IC50
Procedure, shortened: as §1

[12] = molecular target: KRAS G12C (Homo sapiens, UniProt P01116+P62937, G12C); conditions: Ras-Raf disruption, with Cyclophilin A; read-out: KRAS G12C FRET data IC50
Procedure, shortened: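 TR-FRET read-out after 1.5 h with anti-His Eu-W1024 (10 nM) and anti-GST APC (50 nM), following 3 h at 25 °C of compound (top 30 μM, 3-fold, 10 points) with 25 μM Cyclophilin A, 12.5 nM GMPPNP-loaded K-Ras G12C and 50 nM BRAF RBD; IC50 reported.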

Chain of KRAS G12C (P01116 1-169 isoform P01116-2 G12C limits assumed): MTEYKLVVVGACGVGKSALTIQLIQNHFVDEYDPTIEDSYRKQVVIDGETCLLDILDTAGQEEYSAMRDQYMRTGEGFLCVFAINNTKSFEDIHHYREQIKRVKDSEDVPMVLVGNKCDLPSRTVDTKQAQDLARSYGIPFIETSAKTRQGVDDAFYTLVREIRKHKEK
Chain of KRAS G12C (P62937 whole entry): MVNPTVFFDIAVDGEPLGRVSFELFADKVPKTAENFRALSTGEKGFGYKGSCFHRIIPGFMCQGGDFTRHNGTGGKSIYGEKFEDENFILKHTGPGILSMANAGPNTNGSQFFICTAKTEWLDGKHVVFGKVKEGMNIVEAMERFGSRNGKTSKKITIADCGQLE
Chain of KRAS G12V (P01116 1-169 isoform P01116-2 G12V limits assumed): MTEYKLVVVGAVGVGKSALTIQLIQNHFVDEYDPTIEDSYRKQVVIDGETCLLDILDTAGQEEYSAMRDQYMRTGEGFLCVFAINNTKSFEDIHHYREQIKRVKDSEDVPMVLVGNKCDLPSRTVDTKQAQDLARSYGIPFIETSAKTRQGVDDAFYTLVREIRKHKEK
Chain of KRAS G12V (P62937 whole entry): as the sequence (P62937 whole entry) above
Chain of NRAS Q61K (P01111 whole entry Q61K): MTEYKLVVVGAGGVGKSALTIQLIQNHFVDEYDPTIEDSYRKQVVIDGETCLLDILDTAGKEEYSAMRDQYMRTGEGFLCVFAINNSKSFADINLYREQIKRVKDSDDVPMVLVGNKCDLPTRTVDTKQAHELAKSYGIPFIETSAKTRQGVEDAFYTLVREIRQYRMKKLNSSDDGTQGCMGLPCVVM
Chain of NRAS Q61K (P62937 whole entry): as the sequence (P62937 whole entry) above
Chain of KRAS G12D (P01116 1-169 isoform P01116-2 G12D limits assumed): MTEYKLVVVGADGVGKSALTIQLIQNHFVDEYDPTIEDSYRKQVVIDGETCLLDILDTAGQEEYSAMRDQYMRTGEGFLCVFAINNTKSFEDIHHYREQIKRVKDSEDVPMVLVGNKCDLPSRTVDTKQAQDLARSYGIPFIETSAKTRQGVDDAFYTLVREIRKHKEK
Chain of KRAS G12D (P62937 whole entry): as the sequence (P62937 whole entry) above
Chain of KRAS G13C (P01116 1-169 isoform P01116-2 G13C limits assumed): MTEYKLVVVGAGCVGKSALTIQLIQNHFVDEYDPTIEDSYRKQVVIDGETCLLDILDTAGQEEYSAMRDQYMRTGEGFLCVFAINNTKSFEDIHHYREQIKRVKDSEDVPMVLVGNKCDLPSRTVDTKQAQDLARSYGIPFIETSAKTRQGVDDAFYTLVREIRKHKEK
Chain of KRAS G13C (P62937 whole entry): as the sequence (P62937 whole entry) above
Chain of KRAS G13D (P01116 1-169 isoform P01116-2 G13D limits assumed): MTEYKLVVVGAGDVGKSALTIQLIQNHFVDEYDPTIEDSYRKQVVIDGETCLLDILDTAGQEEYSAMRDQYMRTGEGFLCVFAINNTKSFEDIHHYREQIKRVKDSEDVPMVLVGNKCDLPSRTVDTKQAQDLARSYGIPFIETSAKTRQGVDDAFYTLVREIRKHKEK
Chain of KRAS G13D (P62937 whole entry): as the sequence (P62937 whole entry) above
Chain of KRAS Q61H (P01116 1-169 isoform P01116-2 Q61H limits assumed): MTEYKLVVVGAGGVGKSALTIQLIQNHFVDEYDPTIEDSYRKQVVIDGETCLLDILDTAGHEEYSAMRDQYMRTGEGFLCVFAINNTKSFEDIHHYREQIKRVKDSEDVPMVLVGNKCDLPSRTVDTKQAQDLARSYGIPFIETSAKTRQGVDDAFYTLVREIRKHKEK
Chain of KRAS Q61H (P62937 whole entry): as the sequence (P62937 whole entry) above
Chain of KRAS G12S (P01116 1-169 isoform P01116-2 G12S limits assumed): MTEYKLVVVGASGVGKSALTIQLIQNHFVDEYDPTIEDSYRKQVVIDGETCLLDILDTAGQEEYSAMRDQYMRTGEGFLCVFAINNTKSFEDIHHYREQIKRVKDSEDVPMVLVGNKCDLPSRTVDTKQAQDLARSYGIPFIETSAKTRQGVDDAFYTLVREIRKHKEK
Chain of KRAS G12S (P62937 whole entry): as the sequence (P62937 whole entry) above
Chain of NRAS Q61R (P01111 whole entry Q61R): as the sequence (P01111 whole entry Q61K) above, with K61R counted along it
Chain of NRAS Q61R (P62937 whole entry): as the sequence (P62937 whole entry) above
Chain of NRAS WT (P01111 whole entry): as the sequence (P01111 whole entry Q61K) above, with K61Q counted along it
Chain of NRAS WT (P62937 whole entry): as the sequence (P62937 whole entry) above
Chain of NRAS G12C (P01111 whole entry G12C): as the sequence (P01111 whole entry Q61K) above, with G12C, K61Q counted along it
Chain of NRAS G12C (P62937 whole entry): as the sequence (P62937 whole entry) above
Chain of KRAS WT (P01116 1-169 isoform P01116-2 limits assumed): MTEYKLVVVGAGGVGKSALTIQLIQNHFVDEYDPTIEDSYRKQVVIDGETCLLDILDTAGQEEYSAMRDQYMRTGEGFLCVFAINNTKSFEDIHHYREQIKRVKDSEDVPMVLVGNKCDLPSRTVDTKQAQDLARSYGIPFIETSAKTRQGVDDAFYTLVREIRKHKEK
Chain of KRAS WT (P62937 whole entry): as the sequence (P62937 whole entry) above

| SMILES | IC50 [1] [nM] | IC50 [2] [nM] | IC50 [3] [nM] | IC50 [4] [nM] | IC50 [5] [nM] | IC50 [6] [nM] | IC50 [7] [nM] | IC50 [8] [nM] | IC50 [9] [nM] | IC50 [10] [nM] | IC50 [11] [nM] | IC50 [12] [nM] |
| --- | --- | --- | --- | --- | --- | --- | --- | --- | --- | --- | --- | --- |
| CCn1c(-c2cccnc2[C@H](C)OC)c2c3cc(ccc31)-c1cc(O)cc(c1)C[C@H](NC(=O)[C@H](C(C)C)N(C)C(=O)[C@H]1CCCN(C(=O)[C@@H]3CN3)C1)C(=O)N1CCC[C@H](N1)C(=O)OCC(C)(C)C2 [Example 236] | 100 to 1000 | 100 to 1000 | 100 to 1000 | 100 to 1000 | 100 to 1000 | 10 to 100 | 100 to 1000 | 1000 to 10000 | 100 to 1000 | 100 to 1000 | 1000 to 10000 | 10 to 100 |
| CCn1c(-c2cccnc2[C@H](C)OC)c2c3cc(ccc31)-c1cc(O)cc(c1)C[C@H](NC(=O)[C@H](C(C)C)N(C)C(=O)[C@@H]1CCCN(C(=O)[C@@H]3CN3)C1)C(=O)N1CCC[C@H](N1)C(=O)OCC(C)(C)C2 [Example 238] | 100 to 1000 | 100 to 1000 | 10 to 100 | 10 to 100 | 10 to 100 | 10 to 100 | 100 to 1000 | 100 to 1000 | 10 to 100 | 10 to 100 | 100 to 1000 | 10 to 100 |
| CCn1c(-c2cccnc2[C@H](C)OC)c2c3cc(ccc31)-c1csc(n1)C[C@H](NC(=O)[C@H](C(C)C)N(C)C(=O)N1CCN(C(=O)[C@H]3CN3)[C@@H](C)C1)C(=O)N1CCC[C@H](N1)C(=O)OCC(C)(C)C2 [Example 297] | 100 to 1000 | 100 to 1000 | 10 to 100 | 10 to 100 | 100 to 1000 | 10 to 100 | 100 to 1000 | 10 to 100 | 10 to 100 | 10 to 100 | 10 to 100 | 10 to 100 |
| CCn1c(-c2cccnc2[C@H](C)OC)c2c3cc(ccc31)-c1csc(n1)C[C@H](NC(=O)[C@H](C(C)C)N(C)C(=O)N1CCN(C(=O)[C@@H]3CN3)[C@@H](C)C1)C(=O)N1CCC[C@H](N1)C(=O)OCC(C)(C)C2 [Example 298] | 100 to 1000 | 100 to 1000 | 100 to 1000 | 10 to 100 | 10 to 100 | 10 to 100 | 100 to 1000 | 10 to 100 | 10 to 100 | 10 to 100 | 10 to 100 | 10 to 100 |
| CCn1c(-c2cccnc2[C@H](C)OC)c2c3cc(ccc31)-c1csc(n1)C[C@H](NC(=O)[C@H](C(C)C)N(C)C(=O)N1CCN(C(=O)[C@H]3CN3)[C@H](C)C1)C(=O)N1CCC[C@H](N1)C(=O)OCC(C)(C)C2 [Example 299] | 100 to 1000 | 100 to 1000 | 100 to 1000 | 100 to 1000 | 100 to 1000 | 10 to 100 | 100 to 1000 | 10 to 100 | 100 to 1000 | 10 to 100 | 100 to 1000 | 10 to 100 |
| CCn1c(-c2cccnc2[C@H](C)OC)c2c3cc(ccc31)-c1csc(n1)C[C@H](NC(=O)[C@H](C(C)C)N(C)C(=O)N1CCN(C(=O)[C@@H]3CN3)[C@H](C)C1)C(=O)N1CCC[C@H](N1)C(=O)OCC(C)(C)C2 [Example 300] | 100 to 1000 | 100 to 1000 | 100 to 1000 | 100 to 1000 | 100 to 1000 | 10 to 100 | 100 to 1000 | 10 to 100 | 100 to 1000 | 10 to 100 | 100 to 1000 | 100 to 1000 |
